In ChEMBL document CHEMBL1201862, “PubChem BioAssay data set” (2004):
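48-hour exposure; five concentrations; linearly interpolated endpoints. GI50 marks 50% less growth.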 Active and inactive are the calls of the source. Cut-off read from the data, not from the text of the source: active = GI50 up to about 1.1 µM and inactive = higher.

What was measured:
Experiment in all cases: NCI-60 cell line screen, 48 h
[1] = test system: RXF 393
[2] = test system: OVCAR-3
[3] = test system: OVCAR-4
[4] = test system: IGROV-1
[5] = test system: NCI-H226
[6] = test system: M19-MEL
[7] = test system: LXFL 529
[8] = test system: U-251
[9] = test system: SNB-78
[10] = test system: RXF 631
[11] = test system: CAKI-1
[12] = test system: Malme-3M
[13] = test system: HOP-62
[14] = test system: DLD-1
[15] = test system: KM12
[16] = test system: SW-620
[17] = test system: COLO 205
[18] = test system: ACHN
[19] = test system: NCI-H460
[20] = test system: SK-OV-3
[21] = test system: HCC 2998
[22] = test system: CCRF-CEM
[23] = test system: K562
[24] = test system: UO-31
[25] = test system: SK-MEL-28
[26] = test system: NCI-H23
[27] = test system: M14
[28] = test system: SR
[29] = test system: DMS-114
[30] = test system: 786-0
[31] = test system: OVCAR-8
[32] = test system: TK-10
[33] = test system: HL-60
[34] = test system: OVCAR-5
[35] = test system: SN12C
[36] = test system: SF-295
[37] = test system: EKVX
[38] = test system: HCT-116
[39] = test system: SF-539
[40] = test system: NCI-H522
[41] = test system: XF498
[42] = test system: SNB-19
[43] = test system: DMS-273
[44] = test system: A549
[45] = test system: UACC-257
[46] = test system: SF-268
[47] = test system: HT-29
[48] = test system: HCT-15
[49] = test system: UACC-62
[50] = test system: MOLT-4
[51] = test system: LOX IMVI
[52] = test system: SK-MEL-2
[53] = test system: RPMI-8226
[54] = test system: SNB-75
[55] = test system: HOP-92
[56] = test system: A498
[57] = test system: KM-20L2

In the case of `CC(=O)NNc1nc(C)c(C(=O)/C=C/c2ccc(/C=C/C(=O)c3sc(NNC(C)=O)nc3C)cc2)s1`, the GI50 [1] is reported as > 100 µM (inactive), the GI50 [2] is reported as > 100 µM (inactive) and the GI50 [3] is reported as > 100 µM (inactive). The GI50 [4] was > 100 µM (inactive), the GI50 [5] was > 100 µM (inactive) and the GI50 [6] was > 100 µM (inactive). The GI50 [7] was > 100 µM (inactive), the GI50 [8] was > 100 µM (inactive) and the GI50 [9] was > 100 µM (inactive). For the same compound, the GI50 [10] was > 100 µM (inactive), the GI50 [11] was > 100 µM (inactive) and the GI50 [12] was > 100 µM (inactive). For the same compound, the GI50 [13] was > 100 µM (inactive), the GI50 [14] was > 100 µM (inactive) and the GI50 [15] was > 100 µM (inactive). For the same compound, the GI50 [16] was > 100 µM (inactive), the GI50 [17] was > 100 µM (inactive) and the GI50 [18] was > 100 µM (inactive). The GI50 [19] was > 100 µM (inactive), the GI50 [20] was > 100 µM (inactive) and the GI50 [21] was > 100 µM (inactive). For the same compound, the GI50 [22] was > 100 µM (inactive), the GI50 [23] was > 100 µM (inactive) and the GI50 [24] was > 100 µM (inactive). For the same compound, the GI50 [25] was > 100 µM (inactive), the GI50 [26] was > 100 µM (inactive) and the GI50 [27] was 43.2 µM (inactive). For the same compound, the GI50 [28] was > 100 µM (inactive), the GI50 [29] was > 100 µM (inactive) and the GI50 [30] was > 100 µM (inactive). The GI50 [31] was > 100 µM (inactive), the GI50 [32] was > 100 µM (inactive) and the GI50 [33] was > 100 µM (inactive). The GI50 [34] was > 100 µM (inactive), the GI50 [35] was > 100 µM (inactive) and the GI50 [36] was > 100 µM (inactive). The GI50 [37] was 57.3 µM (inactive), the GI50 [38] was > 100 µM (inactive) and the GI50 [39] was > 100 µM (inactive). The GI50 [40] was > 100 µM (inactive), the GI50 [41] was > 100 µM (inactive) and the GI50 [42] was > 100 µM (inactive). For the same compound, the GI50 [43] was > 100 µM (inactive), the GI50 [44] was > 100 µM (inactive) and the GI50 [45] was > 100 µM (inactive). The GI50 [46] was > 100 µM (inactive), the GI50 [47] was > 100 µM (inactive) and the GI50 [48] was > 100 µM. For the same compound, the GI50 [49] was > 100 µM (inactive), the GI50 [50] was > 100 µM (inactive) and the GI50 [51] was > 100 µM (inactive). For the same compound, the GI50 [52] was > 100 µM (inactive).

With `O=C1C=C(Nc2ccc(Cl)cc2Cl)c2ccccc2C1=O` the GI50 [1] was 38.3 µM (inactive), the GI50 [2] was 28.4 µM (inactive) and the GI50 [53] was 46.5 µM (inactive). The GI50 [3] was 87.9 µM (inactive), the GI50 [4] was 50.9 µM (inactive) and the GI50 [5] was 28.5 µM (inactive). The GI50 [6] was 13.5 µM (inactive), the GI50 [7] was 27.2 µM (inactive) and the GI50 [8] was 29.4 µM (inactive). The GI50 [9] was 44.1 µM (inactive), the GI50 [54] was 22.4 µM (inactive) and the GI50 [10] was 34.5 µM (inactive). The GI50 [11] was > 100 µM (inactive), the GI50 [12] was 24.9 µM (inactive) and the GI50 [13] was 30.5 µM (inactive). For the same compound, the GI50 [14] was 44.5 µM (inactive), the GI50 [15] was 66.5 µM (inactive) and the GI50 [55] was 21.2 µM (inactive). The GI50 [16] was 39.5 µM (inactive), the GI50 [17] was > 100 µM (inactive) and the GI50 [18] was 36.2 µM (inactive). The GI50 [19] was 26.1 µM (inactive), the GI50 [20] was 99.1 µM (inactive) and the GI50 [21] was 54.6 µM (inactive). For the same compound, the GI50 [22] was 30.8 µM (inactive), the GI50 [23] was 31.3 µM (inactive) and the GI50 [24] was 43.1 µM (inactive). For the same compound, the GI50 [25] was 59.8 µM (inactive), the GI50 [26] was 21.7 µM (inactive) and the GI50 [27] was 21.3 µM (inactive). For the same compound, the GI50 [28] was 29.4 µM (inactive), the GI50 [29] was 23.6 µM (inactive) and the GI50 [30] was 78.5 µM (inactive). The GI50 [31] was 80 µM (inactive), the GI50 [32] was 24.7 µM (inactive) and the GI50 [56] was > 100 µM (inactive). The GI50 [33] was 28.7 µM (inactive), the GI50 [34] was > 100 µM (inactive) and the GI50 [35] was 57.1 µM (inactive). For the same compound, the GI50 [36] was 53.5 µM (inactive), the GI50 [37] was > 100 µM (inactive) and the GI50 [38] was 35 µM (inactive). For the same compound, the GI50 [39] was > 100 µM (inactive), the GI50 [40] was 29.8 µM (inactive) and the GI50 [42] was 39.3 µM (inactive). The GI50 [43] was 27.4 µM (inactive), the GI50 [44] was 28.5 µM (inactive) and the GI50 [45] was 35 µM (inactive). For the same compound, the GI50 [57] was > 100 µM (inactive), the GI50 [46] was > 100 µM (inactive) and the GI50 [47] was > 100 µM (inactive). The GI50 [48] was 29.5 µM, the GI50 [49] was 16.5 µM (inactive) and the GI50 [50] was 88.1 µM (inactive). The GI50 [52] was 23.6 µM (inactive).
